According to patent US20060018846A1, “Animo substituted hydroxyphenyl benzophenone derivatives” (priority 2002, published 2006):

Columns and labels:
[1] = UV spectrum (absorption maximum and molar extinction); assay type: physicochemical
Text: UV Spectrum (in Dioxan) • Maximum at 359 nm; e=34724
UV Spectrum (in Dioxan): • Maximum at 360 nm; e=37900
UV Spectrum (in Dioxan): • Maximum at 359 nm; e=35080
UV-Spectrum in Dioxan: Max. 351 nm, mol Ext. 65551
UV Spectrum in Ethanol: Max. 354 nm, mol. Ext. 65296

[2] = Solubility in Finsolve TN (C 12-15 alkylbenzoate); assay type: physicochemical
Text: It has a good solubility for example in Finsolve TN (C 12-15 alkylbenzoate)>10%.
The obtained compound is an amorphous, yellow powder Solubility in Finsolve TN>30%

Structure (SMILES)	UV spectrum: Maximum (wavelength; 1. Maximum where two are given) ([1]; in Dioxan)	UV spectrum: e / mol Ext. at the maximum (1. Maximum where two are given) ([1]; in Dioxan)	UV spectrum: Max. (wavelength) ([1]; in Ethanol)	UV spectrum: mol. Ext. ([1]; in Ethanol)	Solubility in Finsolve TN (C 12-15 alkylbenzoate) [2]	UV spectrum: 2. Maximum (wavelength) ([1]; in Dioxan)	UV spectrum: e at 2. Maximum ([1]; in Dioxan)
CCN(CC)c1ccc(C(=O)c2ccccc2C(=O)OC2CC(C)CCC2C(C)C)c(O)c1 (centres unmarked) [Example 6]	351 nm	38565	–	–	–	–	–
CCN(CC)c1ccc(C(=O)c2ccccc2C(=O)N2CCOCC2)c(O)c1 [Example 9]	360 nm	37900	–	–	–	–	–
CCN(CC)c1ccc(C(=O)c2ccccc2C(=O)N(CCO)CCO)c(O)c1 [Example 10]	359 nm	35080	–	–	–	–	–
CCN(CC)c1ccc(C(=O)c2ccccc2C(=O)Nc2ccc(-c3nc4ccc(C)cc4s3)cc2)c(O)c1 [Example 2]	336 nm	57318	–	–	–	360 nm	49032

Now from value to compound:

UV spectrum: Maximum (wavelength; 1. Maximum where two are given) ([1]; in Dioxan)	UV spectrum: e / mol Ext. at the maximum (1. Maximum where two are given) ([1]; in Dioxan)	UV spectrum: Max. (wavelength) ([1]; in Ethanol)	UV spectrum: mol. Ext. ([1]; in Ethanol)	Solubility in Finsolve TN (C 12-15 alkylbenzoate) [2]	UV spectrum: 2. Maximum (wavelength) ([1]; in Dioxan)	UV spectrum: e at 2. Maximum ([1]; in Dioxan)	Structure (SMILES)
359 nm	34724	–	–	–	–	–	CCN(CC)c1ccc(C(=O)c2ccccc2C(=O)Nc2ccccc2)c(O)c1 [Example 8]
–	–	354 nm	65296	> 30%	–	–	CCN(CC)c1ccc(C(=O)c2ccccc2C(=O)OCC(C)(C)COC(=O)c2ccccc2C(=O)c2ccc(N(CC)CC)cc2O)c(O)c1 [Example 12]
358 nm	34848	–	–	–	–	–	CCN(CC)c1ccc(C(=O)c2ccccc2C(=O)Nc2ccc(C(N)=O)cc2)c(O)c1 [Example 4]
351 nm	65551	–	–	> 10%	–	–	CCN(CC)c1ccc(C(=O)c2ccccc2C(=O)OC/C=C/COC(=O)c2ccccc2C(=O)c2ccc(N(CC)CC)cc2O)c(O)c1 [Example 11]
